The values that follow come from publication PMC10756276, “Highly specific σ2R/TMEM97 ligand FEM-1689 alleviates neuropathic pain and inhibits the integrated stress response” (Proceedings of the National Academy of Sciences of the …, 2023).

“Also recorded” adds a separate entry of the source. Like-named read-outs stand apart in the source and are kept apart here.

In data set [1] the target is T1, 5HT1A (Homo sapiens, UniProt P08908).
T1 construct: purchased NIMH Psychoactive Drug Screening Program (PDSP), University of North Carolina at Chapel Hill
Put plainly: PDSP competitive binding assay. To be noted: 10 µM test article; read-out: Ki: primary assay inhibition of radioligand binding, 5HT1A.

The test system of data set [2] is BiP in mouse DRG neurons. The experiment in a line: BiP immunocytochemistry in cultured DRG neurons. The format is cell-based. The following applies: ISRIB 200 nM. As for the experimental part: (§1) The ICC protocol was based on a previously published protocol ([76]). […] Cells were blocked with 10% normal goat serum (NGS) in PBS-triton X (0.1%). […] Antibodies were incubated at 4 °C overnight. […] It was washed with PBS twice. […] Images were analyzed using Olympus CellSens. […] Number of cells analyzed are detailed in SI Appendix, Tables S3 and S4. […]
(§2) T his BSA gradient containing the cells was centrifuged at 900g for 5 min at room temperatur e.
(§3) The pellet containing the cells was resuspended in Br ainPhys media (STEMCell #05790) containing 2% […]
(§4) 1% Gluta Max (Gibco # 350 5 0061). Hu man DRG ne uron s were plated a nd grown o n glass coverslips coate d with po ly-D-lysine (Sigma #P7405). C ultured D RG neurons were plated for 24 hours before being treated.
(§5) Methylglyoxal (Sigma- Aldrich #M0252) and F EM- 1689 were serially diluted in media.
(§6) Mouse samples - DRG cultures […]
(§7) anesthesia and decapitated. […]
(§8) section above with minor differences.
(§9) Mouse DRG neurons were grown in
(§10) SAS-0132 and DKR-1677 were […]
(§11) dissolved in 100% DMSO to a final concentr ation of 200mM and stored at - 20 °C. and DKR-1677 were serially diluted in media. Untreated media was completely replaced with media containing each compound. […]
(§12) Slides were […]
incubated with 1:2 diluted hydrogen peroxide in distilled water for 10 min at r oom temper ature and washed twice in distilled water. The protease IV was applied to each section and incubated for 5 min at room temperature. Slides were w ashed twice in 1X PBS and RNA scope was performed immediately. A mixture of probes - Tmem97, Scn10a, and Fabp7 – was hybridized for 2 hours at 40 °C in a humidity control tray

The target of data set [3] is 5HT2B (Homo sapiens, UniProt P41595). Put plainly: PDSP competitive binding assay. The following applies: 10 µM test article; read-out: Ki: primary assay inhibition of radioligand binding, 5HT2B.
Data set [4] addresses 5HT3 (Homo sapiens, UniProt P46098). Put plainly: PDSP competitive binding assay. The following applies: 10 µM test article; read-out: Ki: primary assay inhibition of radioligand binding, 5HT3.
Data set [5] has as its target T2, SERT (Homo sapiens, UniProt P31645).
T2 construct: purchased NIMH Psychoactive Drug Screening Program (PDSP), University of North Carolina at Chapel Hill
Put plainly: PDSP competitive binding assay. To be noted: 10 µM test article; read-out: Ki: primary assay inhibition of radioligand binding, SERT.

Data set [6] addresses D5 (Homo sapiens, UniProt P21918). Put plainly: PDSP competitive binding assay. To be noted: 10 µM test article; read-out: Ki: primary assay inhibition of radioligand binding, D5.
The target of data set [7] is D2 (Homo sapiens, UniProt P14416). The experiment in a line: PDSP competitive binding assay. The following applies: 10 µM test article; read-out: Ki: primary assay inhibition of radioligand binding, D2.
Data set [8] deals with T3, Alpha2c (Homo sapiens, UniProt P18825).
T3 construct: purchased NIMH Psychoactive Drug Screening Program (PDSP), University of North Carolina at Chapel Hill
The experiment in a line: PDSP competitive binding assay. The following applies: 10 µM test article; read-out: Ki: primary assay inhibition of radioligand binding, Alpha2c.

Data set [9] deals with hERG (Homo sapiens, UniProt Q12809). The experiment in a line: PDSP competitive binding assay (safety/nuisance target).
Data set [10] has as its system p-ACC in mouse DRG neurons. Put plainly: p-ACC immunocytochemistry in cultured DRG neurons. The format is cell-based. To be noted: 16 h; FEM-1689 10, 100, 1,000 nM; A769662 100 µM; wild-type and TMEM97KO neurons. As for the experimental part: as §1, §2, §3, §4, §5, §6, §7, §8, §9, §10, §11, §12
incubated with 1:2 diluted hydrogen peroxide in distilled water for 10 min at r oom temper ature and washed twice in distilled water. […]

Sequence of hERG (Q12809 whole entry): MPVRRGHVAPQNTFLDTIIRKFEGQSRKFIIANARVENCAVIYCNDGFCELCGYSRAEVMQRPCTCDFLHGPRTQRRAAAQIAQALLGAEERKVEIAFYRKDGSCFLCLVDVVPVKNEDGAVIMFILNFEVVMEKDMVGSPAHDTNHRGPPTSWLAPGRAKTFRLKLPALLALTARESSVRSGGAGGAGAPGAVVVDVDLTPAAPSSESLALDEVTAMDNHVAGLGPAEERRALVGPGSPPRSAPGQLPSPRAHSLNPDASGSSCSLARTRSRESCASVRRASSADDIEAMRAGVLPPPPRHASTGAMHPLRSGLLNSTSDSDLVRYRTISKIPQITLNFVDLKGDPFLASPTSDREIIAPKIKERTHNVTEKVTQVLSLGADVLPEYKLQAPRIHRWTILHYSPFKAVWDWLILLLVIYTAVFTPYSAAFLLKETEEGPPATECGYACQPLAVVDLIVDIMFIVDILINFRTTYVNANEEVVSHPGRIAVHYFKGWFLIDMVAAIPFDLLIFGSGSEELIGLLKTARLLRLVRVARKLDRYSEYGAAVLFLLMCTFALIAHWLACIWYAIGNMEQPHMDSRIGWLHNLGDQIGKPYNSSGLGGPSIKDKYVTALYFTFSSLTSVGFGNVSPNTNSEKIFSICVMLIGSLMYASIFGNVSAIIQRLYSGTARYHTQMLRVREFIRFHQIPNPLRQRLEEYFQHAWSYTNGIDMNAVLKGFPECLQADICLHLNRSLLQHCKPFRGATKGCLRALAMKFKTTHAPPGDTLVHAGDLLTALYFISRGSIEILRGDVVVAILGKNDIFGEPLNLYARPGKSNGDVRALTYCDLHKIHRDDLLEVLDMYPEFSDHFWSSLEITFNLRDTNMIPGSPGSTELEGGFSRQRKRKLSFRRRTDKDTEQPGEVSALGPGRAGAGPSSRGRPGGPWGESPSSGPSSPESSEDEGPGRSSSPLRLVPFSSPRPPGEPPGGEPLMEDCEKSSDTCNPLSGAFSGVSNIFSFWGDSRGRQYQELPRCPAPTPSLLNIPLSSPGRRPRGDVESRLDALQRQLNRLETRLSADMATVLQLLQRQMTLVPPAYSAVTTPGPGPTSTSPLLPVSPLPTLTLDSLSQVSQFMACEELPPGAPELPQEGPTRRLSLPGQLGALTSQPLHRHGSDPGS
Sequence of D5 (P21918 whole entry): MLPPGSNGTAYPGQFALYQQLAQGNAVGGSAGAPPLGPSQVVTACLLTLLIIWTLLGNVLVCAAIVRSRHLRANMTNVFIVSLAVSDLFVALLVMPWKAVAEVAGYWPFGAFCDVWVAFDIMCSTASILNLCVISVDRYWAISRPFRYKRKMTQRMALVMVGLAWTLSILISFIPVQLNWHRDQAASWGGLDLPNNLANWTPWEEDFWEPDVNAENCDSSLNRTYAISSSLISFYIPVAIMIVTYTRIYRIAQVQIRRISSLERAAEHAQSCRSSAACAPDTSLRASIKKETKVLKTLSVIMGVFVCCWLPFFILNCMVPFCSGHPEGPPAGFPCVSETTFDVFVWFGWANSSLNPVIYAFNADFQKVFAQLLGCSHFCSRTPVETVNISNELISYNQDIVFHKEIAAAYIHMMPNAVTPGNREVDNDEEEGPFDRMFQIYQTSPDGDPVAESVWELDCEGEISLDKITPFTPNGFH
T2 sequence (P31645 whole entry): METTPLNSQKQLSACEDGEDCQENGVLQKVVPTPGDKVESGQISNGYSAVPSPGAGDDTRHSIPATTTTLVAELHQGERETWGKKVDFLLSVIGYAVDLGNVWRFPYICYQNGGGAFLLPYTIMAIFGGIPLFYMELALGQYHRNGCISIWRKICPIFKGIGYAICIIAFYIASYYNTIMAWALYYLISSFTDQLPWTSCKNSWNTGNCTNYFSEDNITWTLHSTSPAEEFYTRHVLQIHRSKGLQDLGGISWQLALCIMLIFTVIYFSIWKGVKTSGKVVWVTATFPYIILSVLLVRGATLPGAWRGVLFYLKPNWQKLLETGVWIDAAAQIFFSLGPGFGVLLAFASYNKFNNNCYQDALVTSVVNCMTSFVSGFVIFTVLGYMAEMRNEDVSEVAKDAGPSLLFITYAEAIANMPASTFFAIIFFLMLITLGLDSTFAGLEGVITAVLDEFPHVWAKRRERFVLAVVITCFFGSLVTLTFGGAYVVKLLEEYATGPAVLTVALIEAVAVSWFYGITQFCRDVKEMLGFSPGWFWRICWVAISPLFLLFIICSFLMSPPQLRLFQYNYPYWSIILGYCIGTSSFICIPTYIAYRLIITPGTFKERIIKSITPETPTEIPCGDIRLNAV
T1 sequence (P08908 whole entry): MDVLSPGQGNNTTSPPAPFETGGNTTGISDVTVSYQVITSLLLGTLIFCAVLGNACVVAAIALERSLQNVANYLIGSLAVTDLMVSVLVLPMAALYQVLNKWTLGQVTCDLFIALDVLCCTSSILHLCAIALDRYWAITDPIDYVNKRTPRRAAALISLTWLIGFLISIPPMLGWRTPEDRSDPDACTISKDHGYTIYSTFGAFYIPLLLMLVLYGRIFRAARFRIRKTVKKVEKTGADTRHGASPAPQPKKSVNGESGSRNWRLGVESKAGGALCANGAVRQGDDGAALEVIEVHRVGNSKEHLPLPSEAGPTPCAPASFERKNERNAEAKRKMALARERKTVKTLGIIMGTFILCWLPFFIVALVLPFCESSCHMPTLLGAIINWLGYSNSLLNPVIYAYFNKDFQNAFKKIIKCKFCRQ
Sequence of D2 (P14416 whole entry): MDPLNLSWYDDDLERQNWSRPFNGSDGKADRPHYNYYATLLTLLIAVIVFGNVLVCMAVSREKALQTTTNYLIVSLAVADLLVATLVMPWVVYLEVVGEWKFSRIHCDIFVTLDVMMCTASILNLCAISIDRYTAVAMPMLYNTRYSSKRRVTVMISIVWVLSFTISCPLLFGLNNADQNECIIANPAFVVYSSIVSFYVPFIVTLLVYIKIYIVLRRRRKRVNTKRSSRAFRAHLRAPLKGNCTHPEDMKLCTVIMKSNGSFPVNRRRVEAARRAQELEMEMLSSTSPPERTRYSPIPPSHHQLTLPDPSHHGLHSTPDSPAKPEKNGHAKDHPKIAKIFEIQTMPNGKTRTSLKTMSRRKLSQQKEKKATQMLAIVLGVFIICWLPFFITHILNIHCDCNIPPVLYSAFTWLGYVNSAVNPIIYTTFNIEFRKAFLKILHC
T3 sequence (P18825 whole entry): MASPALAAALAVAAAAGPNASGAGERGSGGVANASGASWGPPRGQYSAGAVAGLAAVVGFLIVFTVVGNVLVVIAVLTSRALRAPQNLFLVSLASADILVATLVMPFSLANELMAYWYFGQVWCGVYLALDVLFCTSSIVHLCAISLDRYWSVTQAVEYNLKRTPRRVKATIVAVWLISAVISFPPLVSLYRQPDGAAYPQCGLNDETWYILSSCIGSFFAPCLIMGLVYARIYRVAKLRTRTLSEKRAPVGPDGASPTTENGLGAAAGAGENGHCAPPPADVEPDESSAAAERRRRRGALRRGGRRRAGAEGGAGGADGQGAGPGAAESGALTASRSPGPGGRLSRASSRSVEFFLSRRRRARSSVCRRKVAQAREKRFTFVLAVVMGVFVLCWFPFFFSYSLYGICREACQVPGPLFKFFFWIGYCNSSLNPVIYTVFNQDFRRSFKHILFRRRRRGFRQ
Sequence of 5HT3 (P46098 24-478): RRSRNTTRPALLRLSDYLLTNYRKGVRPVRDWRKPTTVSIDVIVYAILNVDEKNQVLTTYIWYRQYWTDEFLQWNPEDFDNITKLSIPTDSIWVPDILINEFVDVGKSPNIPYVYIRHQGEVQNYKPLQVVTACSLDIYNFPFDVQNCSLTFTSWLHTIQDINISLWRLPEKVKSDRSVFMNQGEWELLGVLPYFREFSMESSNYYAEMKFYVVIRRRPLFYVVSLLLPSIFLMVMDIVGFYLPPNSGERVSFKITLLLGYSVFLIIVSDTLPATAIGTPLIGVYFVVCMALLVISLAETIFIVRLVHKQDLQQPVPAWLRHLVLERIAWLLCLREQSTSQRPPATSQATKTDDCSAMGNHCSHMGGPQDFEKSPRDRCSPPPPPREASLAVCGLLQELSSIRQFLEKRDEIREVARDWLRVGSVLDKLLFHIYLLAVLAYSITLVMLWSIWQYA
Sequence of 5HT2B (P41595 whole entry): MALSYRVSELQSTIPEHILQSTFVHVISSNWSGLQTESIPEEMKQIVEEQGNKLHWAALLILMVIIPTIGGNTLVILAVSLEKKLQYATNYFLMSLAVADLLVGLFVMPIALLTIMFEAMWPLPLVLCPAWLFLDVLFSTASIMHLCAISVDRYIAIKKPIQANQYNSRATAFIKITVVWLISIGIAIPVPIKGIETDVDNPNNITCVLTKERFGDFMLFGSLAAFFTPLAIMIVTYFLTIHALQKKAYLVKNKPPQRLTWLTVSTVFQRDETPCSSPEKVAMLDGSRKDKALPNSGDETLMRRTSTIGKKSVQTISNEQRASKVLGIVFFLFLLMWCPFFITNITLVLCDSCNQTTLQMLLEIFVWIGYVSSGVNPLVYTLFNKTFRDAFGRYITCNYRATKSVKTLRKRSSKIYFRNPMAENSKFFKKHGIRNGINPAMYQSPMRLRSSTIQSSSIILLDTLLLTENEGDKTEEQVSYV

As for `OCCCN1CC[C@@H]2C[C@H]1c1cc(-c3ccc(C(F)(F)F)cc3)ccc12` [FEM-1689], the inhibition at 10 µM in [1], in [3], in data set [4], in [5], in data set [6] and in data set [7] was < 50% in each case. Also, the inhibition at 10 µM in [8] is < 50%. Also, the BiP levels result in [2] (TMEM97KO mouse DRG neurons) is listed as “una ffecte d; also recorded: did not reduce levels of BiP”; in data set [2] (wild-type mouse DRG neurons) it was “reduced at a high concentration of 1000 nM”. Besides, the “LogKi, HERG” value in [9] (dose response curve, given as LogKi with negative sign) was -6.08. The Ki was 839 nM in data set [9] (dose response curve, read-out: Ki, HERG) and 839 nM in data set [9] (single determination, read-out: hERG Ki). In addition, in data set [10], the p-ACC levels entry is “remained unchanged; also recorded: no change in p-ACC levels”.
